Test results from ChEMBL document CHEMBL6083193, “Advancing drug discovery: Thiadiazole derivatives as multifaceted agents in medicinal chemistry and pharmacology” (Bioorg Med Chem, 2024).

Experiments:
[1] = tested on: A2780; experiment: Cytotoxicity against human A2780 cells assessed as reduction in cell viability incubated for 72 hrs by CCK-8 assay; format: functional, cell-based; conditions: A2780, 72 h
[2] = tested on: A2780; experiment: Cytotoxicity against human A2780 cells assessed as increase in LDH activity; format: functional, cell-based
[3] = tested on: A2780; experiment: Induction of apoptosis in human A2780 cells assessed as caspase3/7 activation; format: functional, cell-based
[4] = tested on: MCF7; experiment: Anticancer activity against human MCF7 cells by MTT assay; format: functional, cell-based
[5] = tested on: A549; experiment: Cytotoxicity against human A549 cells assessed as reduction in cell viability incubated for 24 hrs by MTT assay; format: functional, cell-based; conditions: A549, 24 h
[6] = tested on: MCF7; experiment: Cytotoxicity against human MCF7 cells assessed as reduction in cell viability incubated for 24 hrs by MTT assay; format: functional, cell-based; conditions: MCF7, 24 h
[7] = tested on: A549; experiment: Cytotoxicity against human A549 cells assessed as reduction in cell growth; format: functional, cell-based
[8] = tested on: A549; experiment: Cytotoxicity against human A549 cells by MTT assay; format: functional, cell-based
[9] = biological target: Epidermal growth factor receptor (Homo sapiens, UniProt P00533); experiment: Inhibition of EGFR (unknown origin)
[10] = tested on: Trypanosoma brucei; experiment: Antiparasitic activity against blood stream form Trypanosoma brucei assessed as parasitic growth inhibition at 10 uM by resazurin dye based fluorescence analysis relative to control; format: functional; parameters: scale not given: the % may be the effect or the level left

Epidermal growth factor receptor, sequence (P00533 whole entry): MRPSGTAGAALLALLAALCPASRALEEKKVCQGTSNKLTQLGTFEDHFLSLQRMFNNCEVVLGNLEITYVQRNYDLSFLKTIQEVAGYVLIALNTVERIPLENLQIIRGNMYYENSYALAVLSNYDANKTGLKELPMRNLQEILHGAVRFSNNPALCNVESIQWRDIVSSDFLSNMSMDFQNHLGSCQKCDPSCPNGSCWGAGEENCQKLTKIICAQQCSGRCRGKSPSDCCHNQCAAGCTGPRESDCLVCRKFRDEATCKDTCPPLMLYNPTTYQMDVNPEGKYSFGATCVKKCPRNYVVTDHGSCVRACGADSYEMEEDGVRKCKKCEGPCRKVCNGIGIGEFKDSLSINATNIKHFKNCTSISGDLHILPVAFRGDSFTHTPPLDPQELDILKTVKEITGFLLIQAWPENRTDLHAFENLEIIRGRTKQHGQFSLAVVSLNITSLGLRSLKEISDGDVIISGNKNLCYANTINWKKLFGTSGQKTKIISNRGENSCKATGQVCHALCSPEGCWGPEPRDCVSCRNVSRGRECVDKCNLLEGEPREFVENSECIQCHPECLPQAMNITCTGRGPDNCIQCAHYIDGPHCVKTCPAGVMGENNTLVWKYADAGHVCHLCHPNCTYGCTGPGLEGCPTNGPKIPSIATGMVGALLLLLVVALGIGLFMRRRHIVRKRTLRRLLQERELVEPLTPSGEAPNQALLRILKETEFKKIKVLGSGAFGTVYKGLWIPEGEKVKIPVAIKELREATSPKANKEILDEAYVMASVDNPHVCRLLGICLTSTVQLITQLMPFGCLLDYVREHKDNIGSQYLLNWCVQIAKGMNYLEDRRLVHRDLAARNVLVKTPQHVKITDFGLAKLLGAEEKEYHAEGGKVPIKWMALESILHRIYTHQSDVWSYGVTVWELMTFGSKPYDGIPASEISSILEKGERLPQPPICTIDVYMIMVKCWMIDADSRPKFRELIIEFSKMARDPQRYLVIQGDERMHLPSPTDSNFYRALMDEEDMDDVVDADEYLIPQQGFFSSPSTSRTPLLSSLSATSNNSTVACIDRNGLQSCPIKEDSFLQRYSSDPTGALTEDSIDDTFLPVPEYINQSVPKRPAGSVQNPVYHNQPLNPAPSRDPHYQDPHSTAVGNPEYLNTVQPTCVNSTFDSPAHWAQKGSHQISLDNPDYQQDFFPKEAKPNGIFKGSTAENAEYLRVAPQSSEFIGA

Compound	IC50 [5] [µM]	IC50 [6] [µM]	IC50 [7] [µM]	Activity [10] [%]	other results
O=C1C[C@H](n2ccsc2=S)[C@H]2CO[C@@H]1O2	–	–	–	–	IC50 [1]: 47.8 µM; IC50 [2]: 62 µM; IC50 [3]: 1 µM; IC50 [4]: 0.11 µM
C=CCNc1nnc(SCC(=O)N2N=C(c3ccccc3)CC2c2ccc([N+](=O)[O-])cc2)s1 (configuration not stated)	5.18	35.7	10	–	–
O=C(CSc1nnc(Nc2ccccc2)s1)N1N=C(c2ccccc2)CC1c1ccc([N+](=O)[O-])cc1 (configuration not stated)	1.54	15.9	10	–	IC50 [8]: 48.3 µM; IC50 [9]: 0.002 µM
Cc1nc[nH]c1-c1nnc(Nc2ccccc2F)s1	–	–	–	64.81	–
O=C(CSc1nnc(Nc2ccc(Cl)cc2)s1)N1N=C(c2ccccc2)CC1c1ccc([N+](=O)[O-])cc1 (configuration not stated)	8.49	67.2	10	–	IC50 [8]: 11.9 µM
Nc1nsc(=S)n1[C@H]1CC(=O)[C@@H]2OC[C@H]1O2	–	–	–	–	IC50 [1]: 50.2 µM; IC50 [2]: 23.8 µM; IC50 [3]: 15 µM
CNc1nnc(CCCSc2nnc(SCCCc3nnc(NC)s3)s2)s1	–	–	–	65.3	–
c1ccc(Nc2nnc(CCCSc3nnc(CCCSc4nnc(Nc5ccccc5)s4)s3)s2)cc1	–	–	–	82.6	–
